Assay results taken from patent US11370798B2 (Vertex Pharmaceuticals Incorporated, priority 2012, dated 2022).

Tested on: HCT116 colorectal cancer cells
Assay: Cisplatin sensitization assay (96 h cell viability MTS);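 further: Test-compound concentration that lowers the Cisplatin IC50 by a set fold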
Type: cell-based
Settings: compound and Cisplatin added simultaneously, Cisplatin sensitization value
Method: Compounds can be screened for their ability to sensitize HCT116 colorectal cancer cells to Cisplatin using a 96 h cell viability (MTS) assay. […] Compounds and Cisplatin are then both added simultaneously to the cell media in 2-fold serial dilutions from a top final concentration of 10 μM as a full matrix of concentrations in a final cell volume of 200 μl, and the cells are then incubated at 37° C. in 5% CO2. After 96 h, 40 μl of MTS reagent (Promega G358a) is added to each well and the cells are incubated for 1 h at 37° C. in 5% CO2.
Compounds with a Cisplatin sensitization value of <0.02 μM are marked with “+++.” Compounds with a Cisplatin sensitization value>0.02 μM but <0.2 μM are marked with “++.” Compounds with a Cisplatin sensitization value>0.2 μM but <5 μM are marked with “+.”

**Q.** How did the “Cisplatin Sensitization Assay” value turn out when `Nc1nn2cc(F)cnc2c1C(=O)Nc1cnccc1C1CCN(C(=O)C23CCN(CC2)CC3)CC1` [I-C-18, 2-amino-6-fluoro-N-(4-(1-(quinuclidine-4-carbonyl)piperidin-4-yl)pyridin-3-yl)pyrazolo[1,5-a]pyrimidine-3-carboxamide] was run?
**A.** + (Cisplatin sensitization value>0.2 μM but <5 μM)

**Q.** With `CN1CCN(C(=O)c2ccc(-c3ccncc3NC(=O)c3c(N)nn4cc(F)cnc34)cn2)CC1` [I-C-19, 2-amino-6-fluoro-N-(6-(4-methylpiperazine-1-carbonyl)-[3,4′-bipyridin]-3′-yl)pyrazolo[1,5-a]pyrimidine-3-carboxamide] as the compound, how does the “Cisplatin Sensitization Assay” value read?
**A.** ++ (Cisplatin sensitization value>0.02 μM but <0.2 μM)

**Q.** How did the “Cisplatin Sensitization Assay” value turn out when `Cc1ncccc1-c1ccncc1NC(=O)c1c(N)nn2cc(F)cnc12` [I-C-20, 2-amino-6-fluoro-N-(2-methyl-[3,4′-bipyridin]-3′-yl)pyrazolo[1,5-a]pyrimidine-3-carboxamide] was run?
**A.** +++ (Cisplatin sensitization value of <0.02 μM)

**Q.** For `CN1CCN(c2ccc(-c3ccncc3NC(=O)c3c(N)nn4cc(F)cnc34)cn2)CC1` [I-C-21, 2-amino-6-fluoro-N-(6-(4-methylpiperazin-1-yl)-[3,4′-bipyridin]-3′-yl)pyrazolo[1,5-a]pyrimidine-3-carboxamide], which “Cisplatin Sensitization Assay” value is on record?
**A.** +++ (Cisplatin sensitization value of <0.02 μM)

**Q.** With `Cc1ccc(-c2ccncc2NC(=O)c2c(N)nn3cc(F)cnc23)cn1` [I-C-22, 2-amino-6-fluoro-N-(6-methyl-[3,4′-bipyridin]-3′-yl)pyrazolo[1,5-a]pyrimidine-3-carboxamide] as the compound, how does the “Cisplatin Sensitization Assay” value read?
**A.** ++ (Cisplatin sensitization value>0.02 μM but <0.2 μM)

**Q.** Which “Cisplatin Sensitization Assay” value does the source give for `CN1CCC(c2ccncc2NC(=O)c2c(N)nn3cc(C(C)(C)C#N)cnc23)CC1` [I-C-23, 2-amino-6-(2-cyanopropan-2-yl)-N-(4-(1-methylpiperidin-4-yl)pyridin-3-yl)pyrazolo[1,5-a]pyrimidine-3-carboxamide] here?
**A.** + (Cisplatin sensitization value>0.2 μM but <5 μM)

**Q.** `Nc1nn2cc(F)cnc2c1C(=O)Nc1cnccc1-c1ccncc1` [I-C-24, N-([4,4′-bipyridin]-3-yl)-2-amino-6-fluoropyrazolo[1,5-a]pyrimidine-3-carboxamide] was tested. Which “Cisplatin Sensitization Assay” value did it give?
**A.** +++ (Cisplatin sensitization value of <0.02 μM)

**Q.** With `CN1CCN(C(=O)c2ccc(-c3ccncc3NC(=O)c3c(N)nn4cc(F)cnc34)cc2)CC1` [I-C-25, 2-amino-6-fluoro-N-(4-(4-(4-methylpiperazine-1-carbonyl)phenyl)pyridin-3-yl)pyrazolo[1,5-a]pyrimidine-3-carboxamide] as the compound, how does the “Cisplatin Sensitization Assay” value read?
**A.** +++ (Cisplatin sensitization value of <0.02 μM)

**Q.** Which “Cisplatin Sensitization Assay” value does the source give for `Nc1nn2cc(F)cnc2c1C(=O)Nc1cnccc1-c1ccnnc1` [I-C-26, 2-amino-6-fluoro-N-(4-(pyridazin-4-yl)pyridin-3-yl)pyrazolo[1,5-a]pyrimidine-3-carboxamide] here?
**A.** ++ (Cisplatin sensitization value>0.02 μM but <0.2 μM)

**Q.** For `COc1ccc(-c2ccncc2NC(=O)c2c(N)nn3cc(F)cnc23)cn1` [I-C-27, 2-amino-6-fluoro-N-(6-methoxy-[3,4′-bipyridin]-3′-yl)pyrazolo[1,5-a]pyrimidine-3-carboxamide], which “Cisplatin Sensitization Assay” value is on record?
**A.** ++ (Cisplatin sensitization value>0.02 μM but <0.2 μM)

**Q.** Which “Cisplatin Sensitization Assay” value does the source give for `Cc1cnccc1-c1ccncc1NC(=O)c1c(N)nn2cc(F)cnc12` [I-C-29, 2-amino-6-fluoro-N-(3′-methyl-[4,4′-bipyridin]-3-yl)pyrazolo[1,5-a]pyrimidine-3-carboxamide] here?
**A.** +++ (Cisplatin sensitization value of <0.02 μM)

**Q.** For `Cc1ccncc1-c1ccncc1NC(=O)c1c(N)nn2cc(F)cnc12` [I-C-30, 2-amino-6-fluoro-N-(4-methyl-[3,4′-bipyridin]-3′-yl)pyrazolo[1,5-a]pyrimidine-3-carboxamide], which “Cisplatin Sensitization Assay” value is on record?
**A.** +++ (Cisplatin sensitization value of <0.02 μM)

**Q.** `Cc1nnccc1-c1ccncc1NC(=O)c1c(N)nn2cc(F)cnc12` [I-C-31, 2-amino-6-fluoro-N-(4-(3-methylpyridazin-4-yl)pyridin-3-yl)pyrazolo[1,5-a]pyrimidine-3-carboxamide] was tested. Which “Cisplatin Sensitization Assay” value did it give?
**A.** +++ (Cisplatin sensitization value of <0.02 μM)

**Q.** `Cc1ccnnc1-c1ccncc1NC(=O)c1c(N)nn2cc(F)cnc12` [I-C-33, 2-amino-6-fluoro-N-(4-(4-methylpyridazin-3-yl)pyridin-3-yl)pyrazolo[1,5-a]pyrimidine-3-carboxamide] was tested. Which “Cisplatin Sensitization Assay” value did it give?
**A.** + (Cisplatin sensitization value>0.2 μM but <5 μM)

**Q.** How did the “Cisplatin Sensitization Assay” value turn out when `Cc1nc(F)ccc1-c1ccncc1NC(=O)c1c(N)nn2cc(F)cnc12` [I-C-34, 2-amino-6-fluoro-N-(6-fluoro-2-methyl-[3,4′-bipyridin]-3′-yl)pyrazolo[1,5-a]pyrimidine-3-carboxamide] was run?
**A.** +++ (Cisplatin sensitization value of <0.02 μM)

**Q.** For `Nc1nn2cc(F)cnc2c1C(=O)Nc1cnccc1-c1cccnc1F` [I-C-35, 2-amino-6-fluoro-N-(2-fluoro-[3,4′-bipyridin]-3′-yl)pyrazolo[1,5-a]pyrimidine-3-carboxamide], which “Cisplatin Sensitization Assay” value is on record?
**A.** +++ (Cisplatin sensitization value of <0.02 μM)

**Q.** `Cc1cccnc1-c1ccncc1NC(=O)c1c(N)nn2cc(F)cnc12` [I-C-36, 2-amino-6-fluoro-N-(3-methyl-[2,4′-bipyridin]-3′-yl)pyrazolo[1,5-a]pyrimidine-3-carboxamide] was tested. Which “Cisplatin Sensitization Assay” value did it give?
**A.** +++ (Cisplatin sensitization value of <0.02 μM)

**Q.** `Nc1nn2cc(F)cnc2c1C(=O)Nc1cnccc1-c1cccnc1Cl` [I-C-37, 2-amino-N-(2-chloro-[3,4′-bipyridin]-3′-yl)-6-fluoropyrazolo[1,5-a]pyrimidine-3-carboxamide] was tested. Which “Cisplatin Sensitization Assay” value did it give?
**A.** +++ (Cisplatin sensitization value of <0.02 μM)

**Q.** With `CN1CCC(C(=O)N2CC=C(c3c(F)cncc3NC(=O)c3c(N)nn4cc(F)cnc34)CC2)CC1` [I-C-38, 2-amino-6-fluoro-N-(5-fluoro-1′-(1-methylpiperidine-4-carbonyl)-1′,2′,3′,6′-tetrahydro-[4,4′-bipyridin]-3-yl)pyrazolo[1,5-a]pyrimidine-3-carboxamide] as the compound, how does the “Cisplatin Sensitization Assay” value read?
**A.** ++ (Cisplatin sensitization value>0.02 μM but <0.2 μM)

**Q.** Which “Cisplatin Sensitization Assay” value does the source give for `Cc1nc(C(=O)N2CCN(C)CC2)ccc1-c1ccncc1NC(=O)c1c(N)nn2cc(F)cnc12` [I-C-39, 2-amino-6-fluoro-N-(2-methyl-6-(4-methylpiperazine-1-carbonyl)-[3,4′-bipyridin]-3′-yl)pyrazolo[1,5-a]pyrimidine-3-carboxamide] here?
**A.** +++ (Cisplatin sensitization value of <0.02 μM)

**Q.** For `Cc1nc(N2CCN(C)CC2)ccc1-c1ccncc1NC(=O)c1c(N)nn2cc(F)cnc12` [I-C-40, 2-amino-6-fluoro-N-(2-methyl-6-(4-methylpiperazin-1-yl)-[3,4′-bipyridin]-3′-yl)pyrazolo[1,5-a]pyrimidine-3-carboxamide], which “Cisplatin Sensitization Assay” value is on record?
**A.** +++ (Cisplatin sensitization value of <0.02 μM)

**Q.** Which “Cisplatin Sensitization Assay” value does the source give for `Cc1nc(O[C@@H]2CCN(C)C2)ccc1-c1ccncc1NC(=O)c1c(N)nn2cc(F)cnc12` [I-C-41, (R)-2-amino-6-fluoro-N-(2-methyl-6-((1-methylpyrrolidin-3-yl)oxy)-[3,4′-bipyridin]-3′-yl)pyrazolo[1,5-a]pyrimidine-3-carboxamide] here?
**A.** +++ (Cisplatin sensitization value of <0.02 μM)

**Q.** For `Nc1nn2cc(F)cnc2c1C(=O)Nc1cnccc1C1CC1` [I-C-42, 2-amino-N-(4-cyclopropylpyridin-3-yl)-6-fluoropyrazolo[1,5-a]pyrimidine-3-carboxamide], which “Cisplatin Sensitization Assay” value is on record?
**A.** ++ (Cisplatin sensitization value>0.02 μM but <0.2 μM)

**Q.** `CN1CCN(C(=O)c2ccc(-c3c(F)cncc3NC(=O)c3c(N)nn4cc(F)cnc34)cc2)CC1` [I-C-43, 2-amino-6-fluoro-N-(5-fluoro-4-(4-(4-methylpiperazine-1-carbonyl)phenyl)pyridin-3-yl)pyrazolo[1,5-a]pyrimidine-3-carboxamide] was tested. Which “Cisplatin Sensitization Assay” value did it give?
**A.** +++ (Cisplatin sensitization value of <0.02 μM)

**Q.** With `Nc1nn2cc(F)cnc2c1C(=O)Nc1cnccc1-c1ccc(C(=O)N2CCNCC2)cc1` [I-C-44, 2-amino-6-fluoro-N-(4-(4-(piperazine-1-carbonyl)phenyl)pyridin-3-yl)pyrazolo[1,5-a]pyrimidine-3-carboxamide] as the compound, how does the “Cisplatin Sensitization Assay” value read?
**A.** +++ (Cisplatin sensitization value of <0.02 μM)

**Q.** With `Cc1cc(C(=O)N2CCN(C)CC2)ccc1-c1ccncc1NC(=O)c1c(N)nn2cc(F)cnc12` [I-C-45, 2-amino-6-fluoro-N-(4-(2-methyl-4-(4-methylpiperazine-1-carbonyl)phenyl)pyridin-3-yl)pyrazolo[1,5-a]pyrimidine-3-carboxamide] as the compound, how does the “Cisplatin Sensitization Assay” value read?
**A.** +++ (Cisplatin sensitization value of <0.02 μM)

**Q.** For `CN1CCN(C(=O)c2cnc(-c3ccncc3NC(=O)c3c(N)nn4cc(F)cnc34)c(Cl)c2)CC1` [I-C-46, 2-amino-N-(3-chloro-5-(4-methylpiperazine-1-carbonyl)-[2,4′-bipyridin]-3′-yl)-6-fluoropyrazolo[1,5-a]pyrimidine-3-carboxamide], which “Cisplatin Sensitization Assay” value is on record?
**A.** + (Cisplatin sensitization value>0.2 μM but <5 μM)

**Q.** `Nc1nn2cc(F)cnc2c1C(=O)Nc1cnccc1C1CCN(S(=O)(=O)C2CC2)CC1` [I-C-47, 2-amino-N-(4-(1-(cyclopropylsulfonyl)piperidin-4-yl)pyridin-3-yl)-6-fluoropyrazolo[1,5-a]pyrimidine-3-carboxamide] was tested. Which “Cisplatin Sensitization Assay” value did it give?
**A.** +++ (Cisplatin sensitization value of <0.02 μM)

**Q.** Which “Cisplatin Sensitization Assay” value does the source give for `Nc1nn2cc(F)cnc2c1C(=O)Nc1cnccc1-c1ccc(C(=O)N2CCN3CCC2CC3)cc1` [I-C-48, N-(4-(4-(1,4-diazabicyclo[3.2.2]nonane-4-carbonyl)phenyl)pyridin-3-yl)-2-amino-6-fluoropyrazolo[1,5-a]pyrimidine-3-carboxamide] here?
**A.** +++ (Cisplatin sensitization value of <0.02 μM)
